Measurements published in US4543349A, “Basic heptapeptide vasopressin antagonists” (priority 1984, dated 1985).
Starred links: 1 amine or outer side, 2 acyl side, 3 side chain; linkers in the order of their positions; H or OH if unused. Positions of bridges follow the written chain, without caps; N, C: chain ends. Non-standard residues stand in square brackets, D forms with d. Residues, ends and D or L forms follow the SMILES beside them. *: point of attachment. X1 = O=C(CC1(S[*:2])CCCCC1)[*:1]; Agmatine = N=C(N)NCCCCN*; NH(CH2)5NH2 = NCCCCCN*; NH(CH2)4NH2 = NCCCCN*

Tests used:
[1] = molecular target: vasopressin stimulated adenylate cyclase; assay: Vasopressin stimulated adenylate cyclase activity, hog kidney medullary tissue; type: biochemical; settings: swine kidney medullary membrane
Method: (§1) In the test procedure for assay of adenylate cyclase activity, the amount of ^32 P/cAMP formed in the absence of medullary membrane is determined (blank). The blank value is subtracted from all experimental data. The compound is tested for its effect on basal adenylate cyclase activity and/or on vasopressin stimulated activity. Each determination is carried out in triplicate. The Ka value is derived from a Lineweaver-Burkeplot. Rel. Vmax =(Vmax drug/Vmax vasopressin)×100. Ki =I/[Ka'/Ka)-1] where I is the concentration of the antagonist, and Ka' and Ka are the concentrations of vasopressin required to give half maximal activity of adenylate cyclase in the presence and absence of antagonist, respectively.

[2] = molecular target: vasopressin stimulated adenylate cyclase; assay: Vasopressin stimulated adenylate cyclase activity, human kidney medullary tissue; type: biochemical; settings: human kidney medullary membrane
Method: as §1

hydropenic rat = assay: Hydropenic rat screen (anti-ADH activity in vivo); settings: dose required to lower urine osmolality to 300 m-Osmoles/kg; intraperitoneal; hydropenic male rats
Method: The assay for anti-ADH activity in vivo is the hydropenic rat protocol described below:
Food and water are removed from male rats approximately 18 hours prior to testing. Animals are housed 4 per metabolism cage. At 0 hour, the test compound is administered intraperitoneally to the test group and an equivalent volume of vehicle is administered to both control groups (fasted and non-fasted). Urine volume and osmolality are measured every hour for 4 hours. Test values are recorded as ml of urine excreted (cumulative), mEq/rat electrolyte excreted, mg/rat urea excreted, and osmolality in milli-Osmoles/kg H2 O. A tolerance test is used to determine significance. Ed300 is defined as the dose of compound (μg/kg) required to lower urine osmolality to 300 m-Osmoles/kg.

[3] = molecular target: T1, vasopressin receptors (V2 -receptors) (Sus scrofa, UniProt P32307); assay: 3H-vasopressin binding assay, hog kidney medullary membranes; settings: competitive inhibition of 3H-vasopressin binding, read-out: Swine KB
T1 construct: from tissue; host or cells: hog kidney medullary membranes
Method: Antagonistic activity toward the natural antidiuretic hormone (anti-ADH activity) is determined, in vitro, in the medullary tissue of hog or human kidneys and, in vivo, in the hydropenic rat. The in vitro assay procedures for vasopressin stimulated adenylate cyclase activation or vasopression binding activity are described by F. Stassen et al., J. Pharmacology and Experimental Therapeutics, 223, 50-54 (1982).
These values represent total and non-specific binding, respectively.

T1 sequence (P32307 whole entry): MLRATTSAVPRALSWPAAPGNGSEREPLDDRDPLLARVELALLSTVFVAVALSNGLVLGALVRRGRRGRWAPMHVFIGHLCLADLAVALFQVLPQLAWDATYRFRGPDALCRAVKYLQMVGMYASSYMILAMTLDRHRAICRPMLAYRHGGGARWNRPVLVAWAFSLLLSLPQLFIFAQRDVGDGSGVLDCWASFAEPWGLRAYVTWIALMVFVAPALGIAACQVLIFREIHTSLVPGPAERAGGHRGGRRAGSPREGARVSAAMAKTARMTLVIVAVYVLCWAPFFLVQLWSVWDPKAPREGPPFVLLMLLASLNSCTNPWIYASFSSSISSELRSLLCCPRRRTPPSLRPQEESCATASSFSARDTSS

Ki [1] [nM]	Ki [2] [nM]	Kb [3] [nM]	SMILES	Rat ED300 (hydropenic rat) [mg/kg]
6.4	7.5	9.2	CCOc1ccc(C[C@H]2NC(=O)CC3(CCCCC3)SSC[C@@H](C(=O)N3CCC[C@H]3C(=O)NCCCCN)NC(=O)[C@H](CC(N)=O)NC(=O)[C@H](C(C)C)NC(=O)[C@H](Cc3ccccc3)NC2=O)cc1 [C, [1-(β-Mercapto-β,β -cyclopentamethylenepropionic acid)-2-(O--ethyl-D-tyrosine)-4-valine-8-(1,4-diaminobutane)-8-desarginine-9-desglycinamide]-vasopressin] ([dY](Et)FVNCP-{NH(CH2)4NH2}; linker N-5 via X1)	0.019
		410	CCOc1ccc(C[C@H]2NC(=O)CC3(CCCCC3)SSC[C@@H](C(=O)N3CCC[C@H]3C(=O)O)NC(=O)[C@H](CC(N)=O)NC(=O)[C@H](C(C)C)NC(=O)[C@H](Cc3ccccc3)NC2=O)cc1 [D, [1-(β-Mercapto-β,β -cyclopentamethylenepropionic acid)-2-(O--ethyl-D-tyrosine)-4-valine-8-desarginine-9-desglycinamide]-vasopressin] ([dY](Et)FVNCP-OH; linker N-5 via X1)	
		29	CCOc1ccc(C[C@H]2NC(=O)CC3(CCCCC3)SSC[C@@H](C(=O)N3CCC[C@H]3C(=O)NCCCCCN)NC(=O)[C@H](CC(N)=O)NC(=O)[C@H](C(C)C)NC(=O)[C@H](Cc3ccccc3)NC2=O)cc1 [B, [1-(β-Mercapto-β,β -cyclopentamethylenepropionic acid)-2-(O--ethyl-D-tyrosine)-4-valine-8-(1,5-diaminopentane)-8-desarginine-9-desglycinamide]-vasopressin] ([dY](Et)FVNCP-{NH(CH2)5NH2}; linker N-5 via X1)	
		19	CCOc1ccc(C[C@H]2NC(=O)CC3(CCCCC3)SSC[C@@H](C(=O)NCCCCCN)NC(=O)[C@H](CC(N)=O)NC(=O)[C@H](C(C)C)NC(=O)[C@H](Cc3ccccc3)NC2=O)cc1 [F, [1-(β-Mercapto-β,β -cyclopentamethylenepropionic acid)-2-(O--ethyl-D-tyrosine)-4-valine-7-desproline-8-desarginine-9-desglycinamide-7-(1,5-diaminopentane)]-vasopressin]	

SMILES	Ki [1] [nM]	Ki [2] [nM]	Kb [3] [nM]	Rat ED300 (hydropenic rat) [mg/kg]
CC(C)[C@@H]1NC(=O)[C@H](Cc2ccccc2)NC(=O)[C@@H](Cc2ccc(O)cc2)NC(=O)CC2(CCCCC2)SSC[C@@H](C(=O)N2CCC[C@H]2C(=O)O)NC(=O)[C@H](CC(N)=O)NC1=O [E, [1-(β-Mercapto-β,β -cyclopentamethylenepropionic acid)-2-D-tyrosine-4-valine-8-desarginine-9-desglycinamide]-vasopressin] (HELM PEPTIDE1{[dY].F.V.N.C.P}|CHEM1{[O=C(CC1(S[*:2])CCCCC1)[*:1]]}$PEPTIDE1,CHEM1,1:R1-1:R1|PEPTIDE1,CHEM1,5:R3-1:R2$$$V2.0)			17000	
CC(C)[C@@H]1NC(=O)[C@H](Cc2ccccc2)NC(=O)[C@@H](Cc2ccc(O)cc2)NC(=O)CC2(CCCCC2)SSC[C@@H](C(=O)N2CCC[C@H]2C(=O)NCCCCCN)NC(=O)[C@H](CC(N)=O)NC1=O [A, [1-(β-Mercapto-β,β -cyclopentamethylenepropionic acid)-2-D-tyrosine-4-valine-8-(1,5-diaminopentane)-8-desarginine-9-desglycineamide]-vasopressin] (HELM PEPTIDE1{[dY].F.V.N.C.P.[NCCCCCN[*:1]]}|CHEM1{[O=C(CC1(S[*:2])CCCCC1)[*:1]]}$PEPTIDE1,CHEM1,1:R1-1:R1|PEPTIDE1,CHEM1,5:R3-1:R2$$$V2.0)			220	
CCOc1ccc(C[C@H]2NC(=O)CC3(CCCCC3)SSC[C@@H](C(=O)N3CCC[C@H]3C(=O)NCCCCN=C(N)N)NC(=O)[C@H](CC(N)=O)NC(=O)[C@H](C(C)C)NC(=O)[C@H](Cc3ccccc3)NC2=O)cc1 [G, [1-(β-Mercapto-β,β -cyclopentamethylenepropionic acid)-2-(O--ethyl-D-tyrosine)-4-valine-8-desarginine-9-desglycinamide-8-(1,4-aminoguanidinobutane)]-vasopressin] ([dY](Et)FVNCP-Agmatine; linker N-5 via X1)			14	
